# Results as given in patent US20100331338A1, “Glucokinase Activators” (Merck Patent GMBH, priority 2008, published 2010).
# Target: T1, hGK (Homo sapiens, UniProt P35557)
# T1 sequence (P35557 1-465): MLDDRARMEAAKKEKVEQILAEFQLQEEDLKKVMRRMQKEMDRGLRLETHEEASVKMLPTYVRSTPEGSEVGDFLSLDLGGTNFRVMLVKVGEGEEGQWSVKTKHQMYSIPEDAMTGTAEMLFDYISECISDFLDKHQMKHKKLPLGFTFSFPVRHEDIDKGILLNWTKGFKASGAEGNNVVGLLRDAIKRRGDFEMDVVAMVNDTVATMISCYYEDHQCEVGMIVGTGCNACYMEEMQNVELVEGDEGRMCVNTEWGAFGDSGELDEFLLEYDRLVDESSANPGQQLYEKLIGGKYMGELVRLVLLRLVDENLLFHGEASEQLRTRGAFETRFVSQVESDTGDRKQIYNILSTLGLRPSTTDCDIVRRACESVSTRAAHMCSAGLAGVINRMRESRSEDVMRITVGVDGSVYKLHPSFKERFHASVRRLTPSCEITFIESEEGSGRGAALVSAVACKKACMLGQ
# Test: Glucokinase Activation Screening Assay (coupled enzyme assay with PK/LDH)
# Format: biochemical
# Conditions: 2 mM glucose; for hGK fold activation at 30 μM: fold activation at 30 μM compound
# Procedure: Glucokinase Activation Screening Assay
# GK activity (human or rat enzyme) is measured by a coupled enzyme assay using pyruvate kinase (PK) and lactate dehydrogenase (LDH) as coupling enzymes. GK activity is calculated from the decline in NADH monitored photometrically with a microtiter plate (MTP) reader at 340 nm.
# For screening purposes, the GK assay is routinely run in a 384-MTP format, in a total volume of 33 μl/well. 10 μl of the ATP-regeneration solution (in HEPES-buffer*, pH 7.0, 6.73 U/ml pyruvate kinase, 6.8 U/ml lactate dehydrogenase) and 10 μl of the glucokinase-/glucose solution (15 μg/ml, 6.6 mM glucose in HEPES-buffer*, pH 7.0; the concentration of the glucose stock-solution was 660 mM in Millipore H2O) were mixed together with […] of a 10% DMSO solution (in HEPES-buffer*, pH 7.0) containing 3.3-fold the amounts of the compounds to achieve final compound concentrations in the range between 1 nM to 30 μM (sometimes 300 μM) in the assay solution (s. below). The solutions were mixed for 5 sec, and after a centrifugation at 243×g for 5 min, the solutions were preincubated for 25 min at room temperature.
# The reaction was started by the addition of 10 μl of the NADH-/ATP-solution (4.29 mM NADH, 4.95 mM ATP, in HEPES-buffer*). The MTP was shaken for 5 sec., and then, the absorbance at 340 nm was monitored continuously in a MTP-reader (TECAN Spectro fluor plus) for the next 27 min (with a MTP-cycling time of 199 sec.). The final concentrations of the various components were as follows: 49.5 mM Hepes, pH 7.0, 1.49 mM PEP,1,3 mM NADH, 49.5 mM KCl, 4.96 mM MgCl2, 1.5 mM Mg-ATP, 1.98 mM DTT, 2.04 U/ml pyruvate kinase, 2.06 U/ml lactate-dehydrogenase, 0.91% DMSO, 0.15 μg/well glucokinase, and test compounds in the range between 1 nM and 300 μM.
# The change in the optical density (ΔOD340 nm) in the presence of the compound was expressed relative to the ΔOD340 nm, ctrl of the control incubation (in the presence of 2 mM glucose and 0.91% DMSO), taking into account the optical density of the blank sample (incubation in the absence of 2 mM glucose). For the determination of the half maximal effective concentration (EC50), the %-Ctrl-values were plotted in a semi-logarithmic graph against the conc. of the compound of interest. The data points were fitted to a sigmoid curve function (f(x)=((%-Ctrlmax%-Ctrlmin)/(1−(EC50/x**^n(Hill)))+%-Ctrlmin)) by a non-linear regression analysis.
# * Hepes-buffer (50 mM Hepes, pH 7.0, 5 mM MgCl2, 50 mM KCl, 1.5 mM PEP, 0.1% BSA). DTT was added to the Hepes-buffer from a 200× stock solution (in Millipore H2O) freshly each day. The final concentration of DTT in the Hepes-buffer is 2 mM.
hGK fold activation at 30 μM,EC50 [µM],Structure (SMILES)
1.3,,"O=C(Nc1nccs1)c1ccsc1 [Example 2, Thiophene-3-carboxylic acid thiazol-2-ylamide]"
1.3,,"O=C(Nc1nccs1)c1cccs1 [Example 3, Thiophene-2-carboxylic acid thiazol-2-ylamide]"
3.4,,"Cc1csc(C(=O)Nc2nccs2)c1 [Example 4, 4-Methyl-thiophene-2-carboxylic acid thiazol-2-ylamide]"
1.9,5.9,"CS(=O)(=O)c1cc(C(=O)Nc2nccs2)sc1Cl [Example 5, 5-Chloro-4-methanesulfonyl-thiophene-2-carboxylic acid thiazol-2-ylamide]"
1.2,,"O=C(Nc1nccs1)c1csc2ccccc12 [Example 6, Benzo[b]thiophene-3-carboxylic acid thiazol-2-ylamide]"
1.2,,"O=C(Nc1nccs1)c1csc2c1CCCC2 [Example 7, 4,5,6,7-Tetrahydro-benzo[b]thiophene-3-carboxylic acid thiazol-2-ylamide]"
1.6,,"CC1CCc2c(C(=O)Nc3nccs3)csc2C1 (centres unmarked) [Example 8, 6-Methyl-4,5,6,7-tetrahydro-benzo[b]thiophene-3-carboxylic acid thiazol-2-ylamide]"
5.2,9.3,"CCCc1cc(C(=O)Nc2nc(C)cs2)cs1 [Example 10, 5-Propyl-thiophene-3-carboxylic acid(4-methyl-thiazol-2-yl)-amide]"
4.9,15,"CCCc1cc(C(=O)Nc2nc(CC(=O)OCC)cs2)cs1 [Example 11, {2-[(5-Propyl-thiophene-3-carbonyl)-amino]thiazol-4-yl}-acetic acid ethyl ester]"
2.6,5,"CCCc1cc(C(=O)Nc2nc(C(=O)OCC)cs2)cs1 [Example 12, 2-[(5-Propyl-thiophene-3-carbonyl)-amino]-thiazole-4-carboxylic acid ethyl ester]"
1.5,,"CCCc1cc(C(=O)Nc2nc(C)c(C(=O)OCC)s2)cs1 [Example 13, 4-Methyl-2-[(5-propyl-thiophene-3-carbonyl)-amino]-thiazole-5-carboxylic acid ethyl ester]"
2.1,,"CCCc1cc(C(=O)Nc2ncc[nH]2)cs1 [Example 14, 5-Propyl-thiophene-3-carboxylic acid(1H-imidazol-2-yl)-amide]"
3,,"COCc1csc(C(=O)Nc2ccn(Cc3ccccn3)n2)c1 [Example 15, 4-Methoxymethyl-thiophene-2-carboxylic acid(1-pyridin-2-ylmethyl-1H-pyrazol-3-yl)-amide]"
1.3,,"Cc1csc(C(=O)Nc2cc(C)n(Cc3ccccn3)n2)c1 [Example 16, 4-Methyl-thiophene-2-carboxylic acid(5-methyl-1-pyridin-2-ylmethyl-1H-pyrazol-3-yl)-amide]"
1.8,,"COCc1csc(C(=O)Nc2cc(C)n(Cc3ccccn3)n2)c1 [Example 17, 4-Methoxymethyl-thiophene-2-carboxylic acid(5-methyl-1-pyridin-2-ylmethyl-1H-pyrazol-3-yl)-amide]"
1.2,,"CS(=O)(=O)c1csc(C(=O)Nc2nccs2)c1Cl [Example 18, 3-Chloro-4-methanesulfonyl-thiophene-2-carboxylic acid thiazol-2-ylamide]"
1.5,,"O=C(Nc1nccs1)c1cc(-c2ccc(Cl)cc2)cs1 [Example 19, 4-(4-Chloro-phenyl)-thiophene-2-carboxylic acid thiazol-2-ylamide]"
1.4,,"O=C(Nc1nccs1)c1csc([N+](=O)[O-])c1 [Example 20, 5-Nitro-thiophene-3-carboxylic acid thiazol-2-ylamide]"
2.4,,"CCCc1cc(C(=O)Nc2nc3ccccc3[nH]2)cs1 [Example 21, 5-Propyl-thiophene-3-carboxylic acid(1H-benzoimidazol-2-yl)-amide]"
